Laboratory results reported in patent US9433621B2, “Substituted pyridine and pyrimidine derivatives and their use in treating viral infections” (Merck Sharp & Dohme Corp., priority 2010, dated 2016).

What follows are compounds tested on HCV replicon (assay: Cell-Based HCV Replicon Assay). Details: Hepatitis C virus; HCV Replicon assay, EC90 given as numeric bound, Table VI; read-out: EC90.
In short: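 EC50 and EC90 taken from sigmoid fits of ΔCT (5B minus GAPDH) as the concentrations raising ΔCT by 1 and 3.2 over baseline, via multiplex real-time RT-PCR on lysates after 3 days. Replicon cells at 5000/well; 10 two-fold dilutions from 25–1 μM, 0.5% DMSO, 10% FBS.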
With Cc1nc(NC2(CS(=O)(=O)C(C)(C)C)CCCCC2)nc(N[C@@H]2C[C@H](C(C)(C)O)[C@@H](O)[C@H]2O)c1-c1nc2c(C)nccc2s1 [Example 5197] the EC90 was over 1000 nM.
COCC1(Nc2nc(C)c(-c3nc4c(C)nccc4s3)c(N[C@@H]3C[C@H](C(C)(C)O)[C@@H](O)[C@H]3O)n2)CCCCC1 [Example 5198] was tested, and the EC90 was over 1000 nM.
Compound COCCNc1nc(C)c(-c2nc3c(C)nccc3s2)c(N2C[C@H]3C[C@@H]2[C@H](O)[C@@H]3O)n1 [Example 5214] has an EC90 of over 1000 nM.

Same assay, conditions: Hepatitis C virus; HCV Replicon assay, EC90 range, Table VI; read-out: EC90
With Cc1nc(NCC2CC(F)(F)C2)nc(N[C@@H]2C[C@H](C(F)F)[C@@H](O)[C@H]2O)c1-c1nc2c(C3CC3)nccc2s1 [Example 5182] the EC90 was under 500 nM.
Compound Cc1nc(NCC2CCC2)nc(N[C@@H]2C[C@H](C(C)(F)F)[C@@H](O)[C@H]2O)c1-c1nc2c(C3CC3)nccc2s1 [Example 5183] has an EC90 of under 500 nM.
For Cc1nc(N[C@H](C)C2CCC2)nc(N[C@@H]2C[C@H](C(C)(F)F)[C@@H](O)[C@H]2O)c1-c1nc2c(C3CC3)nccc2s1 [Example 5184], the EC90 was under 500 nM.
Cc1nc(NCC2CCC2)nc(N[C@@H]2C[C@H](C(F)F)[C@@H](O)[C@H]2O)c1-c1nc2c(C3CC3)nccc2s1 [Example 5185] gave an EC90 of under 500 nM.
In the case of Cc1nc(N[C@H](C)C2CCC2)nc(N[C@@H]2C[C@H](C(F)F)[C@@H](O)[C@H]2O)c1-c1nc2c(C3CC3)nccc2s1 [Example 5186], the EC90 is reported as under 500 nM.
COc1nc(C)c(-c2nc3c(C4CC4)nccc3s2)c(N[C@@H]2C[C@H](C(C)(F)F)[C@@H](O)[C@H]2O)n1 [Example 5187] showed an EC90 of 5000 to 25000 nM.
With Cc1nc(N)nc(N[C@@H]2C[C@H](C(C)(F)F)[C@@H](O)[C@H]2O)c1-c1nc2c(C3CC3)nccc2s1 [Example 5188] the EC90 was under 500 nM.
With C#CCCNc1nc(C)c(-c2nc3c(C4CC4)nccc3s2)c(N[C@@H]2C[C@H](C(C)(F)F)[C@@H](O)[C@H]2O)n1 [Example 5189] the EC90 was under 500 nM.
Compound Cc1nc(N)nc(N[C@@H]2C[C@H](C(F)F)[C@@H](O)[C@H]2O)c1-c1nc2c(C3CC3)nccc2s1 [Example 5190] has an EC90 of under 500 nM.
For Cc1nc(NCC2(C)CC2)nc(N[C@@H]2C[C@H](C(F)F)[C@@H](O)[C@H]2O)c1-c1nc2c(C3CC3)nccc2s1 [Example 5191], the EC90 was under 500 nM.
Cc1nc(NCCC2CC2)nc(N[C@@H]2C[C@H](C(F)F)[C@@H](O)[C@H]2O)c1-c1nc2c(C3CC3)nccc2s1 [Example 5192] was tested, and the EC90 was under 500 nM.
With Cc1nc(NCCC(C)C)nc(N[C@@H]2C[C@H](C(F)F)[C@@H](O)[C@H]2O)c1-c1nc2c(C3CC3)nccc2s1 [Example 5193] the EC90 was under 500 nM.
CSCCNc1nc(C)c(-c2nc3c(C4CC4)nccc3s2)c(N[C@@H]2C[C@H](C(F)F)[C@@H](O)[C@H]2O)n1 [Example 5194] was tested, and the EC90 was under 500 nM.
COC1(CNc2nc(C)c(-c3nc4c(C)nccc4s3)c(N[C@@H]3C[C@H](C(C)(C)O)[C@@H](O)[C@H]3O)n2)CCCCC1 [Example 5195] showed an EC90 of under 500 nM.
Work on CCC(CNc1nc(C)c(-c2nc3c(C)nccc3s2)c(N[C@@H]2C[C@H](C(C)(C)O)[C@@H](O)[C@H]2O)n1)OC (stereo partly shown) [Example 5196] yielded an EC90 of under 500 nM.
Cc1nc(NCC2CC2)nc(NC2(CO)CCCCC2)c1-c1nc2c(C)nccc2s1 [Example 5199] gave an EC90 of under 500 nM.
COCCNc1nc(C)c(-c2nc3c(C)nccc3s2)c(NC2(CO)CCCCC2)n1 [Example 5200] showed an EC90 of under 500 nM.
COCC1(Nc2nc(NCC3CC3)nc(C)c2-c2nc3c(C)nccc3s2)CCCCC1 [Example 5201] was tested, and the EC90 was under 500 nM.
In the case of Cc1nc(NC(=N)NCC2CC2)nc(N[C@@H]2C[C@H](C(C)(C)O)[C@@H](O)[C@H]2O)c1-c1nc2c(C)nccc2s1 [Example 5202], the EC90 is reported as over 25000 nM.
In the case of Cc1nc(N[C@H](C)c2c(F)c(F)c(C)c(F)c2F)nc(N[C@@H]2C[C@H](CS(=O)(=O)c3ccc(F)cc3)[C@@H](O)[C@H]2O)c1-c1nc2c(C3CC3)nccc2s1 [Example 5203], the EC90 is reported as 500 to 5000 nM.
For Cc1nc(N[C@H](C)c2c(F)c(F)c(C)c(F)c2F)nc(N[C@@H]2C[C@H](C(C)(C)O)[C@@H](O)[C@H]2O)c1-c1nc2c(C)nccc2s1 [Example 5204], the EC90 was under 500 nM.
Work on Cc1nc(N[C@H](C)c2c(F)c(F)c(C)c(F)c2F)nc(N[C@@H]2C[C@H](CS(C)(=O)=O)[C@@H](O)[C@H]2O)c1-c1nc2c(C3CC3)nccc2s1 [Example 5205] yielded an EC90 of under 500 nM.
Cc1nc(NCc2c(F)cccc2F)nc(N[C@@H]2C[C@H](COc3c(F)cccc3F)[C@@H](O)[C@H]2O)c1-c1nc2c(C)nccc2s1 [Example 5206] was tested, and the EC90 was under 500 nM.
In the case of Cc1nc(N[C@H](C)C2CC2)nc(N[C@@H]2C[C@H](COc3c(F)cccc3F)[C@@H](O)[C@H]2O)c1-c1nc2c(C)nccc2s1 [Example 5207], the EC90 is reported as under 500 nM.
Cc1nc(NCCCOCC(F)(F)F)nc(N[C@@H]2C[C@H](C(C)(C)O)[C@@H](O)[C@H]2O)c1-c1nc2c(C)nccc2s1 [Example 5208] was tested, and the EC90 was under 500 nM.
Work on Cc1nc(NCc2c(F)cccc2F)nc(N[C@@H]2C[C@H](CS(=O)(=O)c3cc(F)cc(F)c3)[C@@H](O)[C@H]2O)c1-c1nc2c(N)nccc2s1 [Example 5209] yielded an EC90 of under 500 nM.
In the case of Cc1nc(NCC(F)(F)C(F)(F)C(F)(F)F)nc(N[C@@H]2C[C@H](C(C)(C)O)[C@@H](O)[C@H]2O)c1-c1nc2c(N)nccc2s1 [Example 5210], the EC90 is reported as under 500 nM.
Compound Cc1nc(N)nc(N[C@@H]2C[C@H](CS(=O)(=O)c3cc(F)cc(F)c3)[C@@H](O)[C@H]2O)c1-c1nc2c(N)nccc2s1 [Example 5211] has an EC90 of under 500 nM.
Cc1nc(N)nc(N[C@@H]2C[C@H](COc3c(F)cccc3F)[C@@H](O)[C@H]2O)c1-c1nc2c(C)nccc2s1 [Example 5212] gave an EC90 of under 500 nM.
Compound Cc1nc(NCC(F)(F)C(F)(F)F)nc(N[C@@H]2C[C@H](COc3c(F)cccc3F)[C@@H](O)[C@H]2O)c1-c1nc2c(C)nccc2s1 [Example 5213] has an EC90 of under 500 nM.
In the case of COCCNc1nc(C)c(-c2nc3c(C)nccc3s2)c(NC2(C)CCC2)n1 [Example 5215], the EC90 is reported as under 500 nM.
With Cc1nc(NCc2c(F)cccc2F)nc(NC2(C)CCC2)c1-c1nc2c(C)nccc2s1 [Example 5216] the EC90 was under 500 nM.
For CO[C@H]1COC[C@@H]1Nc1nc(C)c(-c2nc3c(C)nccc3s2)c(N[C@@H]2C[C@H](C(C)(C)O)[C@@H](O)[C@H]2O)n1 [Example 5218], the EC90 was under 500 nM.
Compound Cc1nc(NCCO)nc(NC2(C)CCC2)c1-c1nc2c(C)nccc2s1 [Example 5219] has an EC90 of under 500 nM.
Compound Cc1nc(NCC(F)(F)C(F)(F)F)nc(NC2(C)CCC2)c1-c1nc2c(C)nccc2s1 [Example 5220] has an EC90 of 500 to 5000 nM.
Compound Cc1nc(NCC(C)(F)F)nc(N[C@@H]2C[C@H](C(C)(C)O)[C@@H](O)[C@H]2O)c1-c1nc2c(C)nccc2s1 [Example 5221] has an EC90 of under 500 nM.
Cc1nc(NCC2(O)CCCC2)nc(NC2(C)CCC2)c1-c1nc2c(C)nccc2s1 [Example 5222] gave an EC90 of under 500 nM.
With Cc1nc(NCC(F)(F)C(F)(F)F)nc(N[C@@H]2C[C@H](CS(C)(=O)=O)[C@@H](O)[C@H]2O)c1-c1nc2c(C3CC3)nccc2s1 [Example 5223] the EC90 was under 500 nM.
Cc1nc(NCC(F)(F)C(F)(F)F)nc(N[C@@H]2C[C@H](CO)[C@@H](O)[C@H]2O)c1-c1nc2c(C3CC3)nccc2s1 [Example 5224] showed an EC90 of under 500 nM.
Cc1nc(NCC(F)(F)C(F)(F)F)nc(N[C@@H]2C[C@H](CS(=O)(=O)c3ccc(F)cc3)[C@@H](O)[C@H]2O)c1-c1nc2c(C3CC3)nccc2s1 [Example 5225] showed an EC90 of under 500 nM.
CO[C@@H](CNc1nc(C)c(-c2nc3c(C)nccc3s2)c(N[C@@H]2C[C@H](CO)[C@@H](O)[C@H]2O)n1)c1ccc(F)cc1 [Example 5226] gave an EC90 of under 500 nM.
CO[C@@H](CNc1nc(C)c(-c2nc3c(C4CC4)nccc3s2)c(N[C@@H]2C[C@H](CO)[C@@H](O)[C@H]2O)n1)c1ccc(F)cc1 [Example 5227] gave an EC90 of under 500 nM.
Compound CO[C@@H](CNc1nc(C)c(-c2nc3cnccc3s2)c(N[C@@H]2C[C@H](C(C)(C)O)[C@@H](O)[C@H]2O)n1)c1ccc(F)cc1 [Example 5228] has an EC90 of under 500 nM.
For CO[C@@H](CNc1nc(C)c(-c2nc3c(C)nccc3s2)c(N[C@@H]2C[C@H](C(C)(C)O)[C@@H](O)[C@H]2O)n1)c1ccc(F)cc1 [Example 5229], the EC90 was under 500 nM.
CO[C@@H](CNc1nc(C)c(-c2nc3c(C)nccc3s2)c(N[C@@H]2C[C@H](CO)[C@@H](O)[C@H]2O)n1)C(F)(F)F [Example 5230] gave an EC90 of under 500 nM.
Work on CO[C@@H](CNc1nc(C)c(-c2nc3c(C4CC4)nccc3s2)c(N[C@@H]2C[C@H](CO)[C@@H](O)[C@H]2O)n1)C(F)(F)F [Example 5231] yielded an EC90 of under 500 nM.
Compound CO[C@@H](CNc1nc(C)c(-c2nc3c(C)nccc3s2)c(N[C@@H]2C[C@H](C(C)(C)O)[C@@H](O)[C@H]2O)n1)C(F)(F)F [Example 5232] has an EC90 of under 500 nM.
With CCO[C@@H](CNc1nc(C)c(-c2nc3c(C)nccc3s2)c(N[C@@H]2C[C@H](CO)[C@@H](O)[C@H]2O)n1)C(F)(F)F [Example 5233] the EC90 was under 500 nM.
CCO[C@@H](CNc1nc(C)c(-c2nc3c(C4CC4)nccc3s2)c(N[C@@H]2C[C@H](CO)[C@@H](O)[C@H]2O)n1)C(F)(F)F [Example 5234] was tested, and the EC90 was under 500 nM.
Work on CCO[C@@H](CNc1nc(C)c(-c2nc3c(C)nccc3s2)c(N[C@@H]2C[C@H](C(C)(C)O)[C@@H](O)[C@H]2O)n1)C(F)(F)F [Example 5235] yielded an EC90 of under 500 nM.
Cc1nc(NCc2c(F)cc(F)cc2F)nc(N[C@@H]2C[C@H](C3(O)CC3)[C@@H](O)[C@H]2O)c1-c1nc2c(C)nccc2s1 [Example 5236] was tested, and the EC90 was under 500 nM.
Cc1nc(NCCSC(C)(C)C)nc(N[C@@H]2C[C@H](C3(O)CC3)[C@@H](O)[C@H]2O)c1-c1nc2c(C)nccc2s1 [Example 5237] was tested, and the EC90 was under 500 nM.
CO[C@H](C)CNc1nc(C)c(-c2nc3c(C)nccc3s2)c(N[C@@H]2C[C@H](C3(O)CC3)[C@@H](O)[C@H]2O)n1 [Example 5238] gave an EC90 of under 500 nM.
Cc1nc(NCC2CC2)nc(N[C@@H]2C[C@H](C3(O)CC3)[C@@H](O)[C@H]2O)c1-c1nc2c(C)nccc2s1 [Example 5239] was tested, and the EC90 was under 500 nM.
Compound COC[C@@H](C)Nc1nc(C)c(-c2nc3c(C)nccc3s2)c(N[C@@H]2C[C@H](C3(O)CC3)[C@@H](O)[C@H]2O)n1 [Example 5240] has an EC90 of under 500 nM.
